# Experimental data reported in publication PMC12007089, “Applying Isothermal Titration Calorimetry and Saturation Transfer Difference-NMR to Study the Mode of Interaction of Flavan-3-ols with α-Amylase to Understand Their Impact on Starch Hydrolysis” (Journal of Agricultural and Food Chemistry, 2025).
# Target: T1, porcine pancreatic α-amylase (Sus scrofa, UniProt P00690)
# T1 sequence (P00690 16-511): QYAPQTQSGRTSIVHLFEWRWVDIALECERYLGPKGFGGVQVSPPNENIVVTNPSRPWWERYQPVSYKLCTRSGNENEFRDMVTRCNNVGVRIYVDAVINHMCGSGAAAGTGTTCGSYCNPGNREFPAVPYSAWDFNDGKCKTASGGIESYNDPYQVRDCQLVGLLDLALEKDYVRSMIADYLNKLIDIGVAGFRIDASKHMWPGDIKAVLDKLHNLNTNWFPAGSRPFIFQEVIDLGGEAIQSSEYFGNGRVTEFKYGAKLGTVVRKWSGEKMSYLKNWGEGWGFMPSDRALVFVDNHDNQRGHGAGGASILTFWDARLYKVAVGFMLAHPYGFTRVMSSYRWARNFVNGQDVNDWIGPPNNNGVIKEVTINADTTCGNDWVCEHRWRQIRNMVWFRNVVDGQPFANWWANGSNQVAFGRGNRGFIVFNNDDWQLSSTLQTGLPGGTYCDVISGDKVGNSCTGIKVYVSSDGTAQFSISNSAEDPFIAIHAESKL
# Assay: 1H NMR of aggregation of PC C1 with α-amylase
# Type: binding
# Details: for adsorption of PC C1 on the surface of α-amylase: 1 mM (0.75 μmol) PC C1; for PC C1 signal intensities after addition of α-amylase: 275 K
# Method: ^1H NMR experiments were conducted to investigate the aggregation of PC C1 with α-amylase. First, 1 mM PC C1 (0.75 μmol) was measured, and then, α-amylase was added at concentrations of 10 and 20 μM. The relative decrease in intensity of PC C1 signals in the range of 6.866–7.040 ppm (E2′, H6′, B2′, B5′, E5′, E6′, and H5′) was used to calculate the proportion of PC C1 aggregated with α-amylase. Blank measurements were performed with 10 and 20 μM α-amylase dissolved in the same buffer without PC C1. Data were acquired using a Bruker Avance III HD 600 MHz NMR spectrometer equipped with a 5 mm BBFO probe (Smart Probe) with ATM and a z-gradient. Spectra were recorded at 275 K (2 °C) in 0.1 M phosphate buffer/0.04 M NaCl phosphate buffer, pH 7, in D2O:H2O (9:1). The pulse program zgesgp was used with a spectral width of 16 ppm, and all spectra were recorded with 512 scans, an acquisition time of 1.70 s, and a recycle delay (D1) of 1 s. Data were analyzed using TopSpin software (version 4.4.1, Bruker).
structure (smiles),measurement,setting,value
"Oc1cc(O)c2c(c1)O[C@H](c1ccc(O)c(O)c1)[C@H](O)[C@H]2c1c(O)cc(O)c2c1O[C@H](c1ccc(O)c(O)c1)[C@H](O)[C@H]2c1c(O)cc(O)c2c1O[C@H](c1ccc(O)c(O)c1)[C@H](O)C2 [PC C1, procyanidin C1]",ratio of PC C1 to α-amylase,10 μM α-amylase,26
same,adsorption of PC C1 on the surface of α-amylase,10 μM α-amylase,0.20 µmol
same,ratio of PC C1 to α-amylase,20 μM α-amylase,18
same,adsorption of PC C1 on the surface of α-amylase,20 μM α-amylase,0.28 µmol
same,PC C1 signal intensities after addition of α-amylase,"1 mM PC C1, 10 μM α-amylase",73%
same,PC C1 signal intensities after addition of α-amylase,"1 mM PC C1, 20 μM α-amylase",63%
